PubChem BioAssay (NCI)
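Values below derive from 48-hour exposures of cells grown in 96-well plates, with endpoints linearly interpolated between the two concentrations bracketing the appropriate inhibition level. TGI denotes the concentration required for complete inhibition of growth.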

Tests used:
Experiment in all cases: NCI tumour cell line growth inhibition, 48 h
[1] = system: 786-0 renal
[2] = system: A549 NSCLC
[3] = system: ACHN renal
[4] = system: BT-549 breast
[5] = system: CAKI-1 renal
[6] = system: CCRF-CEM leukemia
[7] = system: COLO 205 colon
[8] = system: DU-145 prostate
[9] = system: EKVX NSCLC
[10] = system: HCT-116 colon
[11] = system: HCT-15 colon
[12] = system: HL-60(TB) leukemia
[13] = system: HOP-62 NSCLC
[14] = system: HOP-92 NSCLC
[15] = system: HS 578T breast
[16] = system: HT29 colon
[17] = system: IGROV1 ovarian
[18] = system: K-562 leukemia
[19] = system: KM12 colon
[20] = system: LOX IMVI melanoma
[21] = system: M14 melanoma
[22] = system: MALME-3M melanoma
[23] = system: MCF7 breast
[24] = system: MDA-MB-435
[25] = system: MDA-N
[26] = system: MOLT-4 leukemia
[27] = system: NCI-H226 lung
[28] = system: NCI-H23 lung
[29] = system: NCI-H460 lung
[30] = system: NCI-H522 lung
[31] = system: NCI/ADR-RES ovarian
[32] = system: OVCAR-3 ovarian
[33] = system: OVCAR-4 ovarian
[34] = system: OVCAR-5 ovarian
[35] = system: OVCAR-8 ovarian
[36] = system: PC-3 prostate
[37] = system: RPMI-8226 leukemia
[38] = system: SF-268 CNS
[39] = system: SF-295 CNS
[40] = system: SK-MEL-2 melanoma
[41] = system: SK-MEL-28 melanoma
[42] = system: SK-MEL-5 melanoma
[43] = system: SK-OV-3 ovarian
[44] = system: SN12C renal
[45] = system: SNB-19 CNS
[46] = system: SNB-75 CNS
[47] = system: SR leukemia
[48] = system: SW-620 colon
[49] = system: T-47D breast
[50] = system: TK-10 renal
[51] = system: U251 CNS
[52] = system: UACC-257 melanoma
[53] = system: UACC-62 melanoma
[54] = system: UO-31 renal
[55] = system: A498 renal
[56] = system: HCC-2998 colon
[57] = system: MDA-MB-231 breast
[58] = system: RXF 393 renal
[59] = system: SF-539 CNS

With `CC12CCCC3(CC(=O)C(C)(C)C3C(=O)C1)C2` (stereo not drawn) the TGI [1] was greater than 100 µM, the TGI [2] was greater than 100 µM and the TGI [3] was greater than 100 µM. The TGI [4] was greater than 100 µM, the TGI [5] was greater than 100 µM and the TGI [6] was greater than 100 µM. For the same compound, the TGI [7] was greater than 100 µM, the TGI [8] was greater than 100 µM and the TGI [9] was greater than 100 µM. For the same compound, the TGI [10] was greater than 100 µM, the TGI [11] was greater than 100 µM and the TGI [12] was greater than 100 µM. For the same compound, the TGI [13] was greater than 100 µM, the TGI [14] was greater than 100 µM and the TGI [15] was greater than 100 µM. For the same compound, the TGI [16] was greater than 100 µM, the TGI [17] was greater than 100 µM and the TGI [18] was greater than 100 µM. The TGI [19] was greater than 100 µM, the TGI [20] was greater than 100 µM and the TGI [21] was greater than 100 µM. It also gave a TGI [22] greater than 100 µM, a TGI [23] greater than 100 µM and a TGI [24] greater than 100 µM. For the same compound, the TGI [25] was greater than 100 µM, the TGI [26] was greater than 100 µM and the TGI [27] was greater than 100 µM. For the same compound, the TGI [28] was greater than 100 µM, the TGI [29] was greater than 100 µM and the TGI [30] was greater than 100 µM. It also gave a TGI [31] greater than 100 µM, a TGI [32] greater than 100 µM and a TGI [33] greater than 100 µM. It also gave a TGI [34] greater than 100 µM, a TGI [35] greater than 100 µM and a TGI [36] greater than 100 µM. For the same compound, the TGI [37] was greater than 100 µM, the TGI [38] was greater than 100 µM and the TGI [39] was greater than 100 µM. The TGI [40] was greater than 100 µM, the TGI [41] was greater than 100 µM and the TGI [42] was greater than 100 µM. It also gave a TGI [43] greater than 100 µM, a TGI [44] greater than 100 µM and a TGI [45] greater than 100 µM. It also gave a TGI [46] greater than 100 µM, a TGI [47] greater than 100 µM and a TGI [48] greater than 100 µM. For the same compound, the TGI [49] was greater than 100 µM, the TGI [50] was greater than 100 µM and the TGI [51] was greater than 100 µM. For the same compound, the TGI [52] was greater than 100 µM, the TGI [53] was greater than 100 µM and the TGI [54] was greater than 100 µM.

Compound `CC(=O)OC1CCC2C3CCc4c(C)ccc(OS(=O)(=O)c5ccccc5)c4C3CCC12C` (stereo not drawn) has a TGI [1] of 36.9 µM, a TGI [55] greater than 100 µM and a TGI [3] greater than 100 µM. It also gave a TGI [4] greater than 100 µM, a TGI [5] greater than 100 µM and a TGI [6] greater than 100 µM. The TGI [7] was greater than 100 µM, the TGI [8] was greater than 100 µM and the TGI [9] was greater than 100 µM. The TGI [56] was greater than 100 µM, the TGI [10] was 48.3 µM and the TGI [11] was greater than 100 µM. It also gave a TGI [12] greater than 100 µM, a TGI [13] greater than 100 µM and a TGI [14] of 37.9 µM. For the same compound, the TGI [16] was greater than 100 µM, the TGI [17] was greater than 100 µM and the TGI [18] was greater than 100 µM. It also gave a TGI [20] greater than 100 µM, a TGI [22] greater than 100 µM and a TGI [23] greater than 100 µM. For the same compound, the TGI [57] was greater than 100 µM, the TGI [24] was greater than 100 µM and the TGI [25] was greater than 100 µM. For the same compound, the TGI [26] was greater than 100 µM, the TGI [27] was greater than 100 µM and the TGI [28] was greater than 100 µM. It also gave a TGI [29] greater than 100 µM, a TGI [30] greater than 100 µM and a TGI [32] of 46.7 µM. For the same compound, the TGI [33] was 88.4 µM, the TGI [34] was greater than 100 µM and the TGI [36] was greater than 100 µM. The TGI [37] was greater than 100 µM, the TGI [58] was 94.4 µM and the TGI [38] was greater than 100 µM. The TGI [39] was greater than 100 µM, the TGI [40] was greater than 100 µM and the TGI [41] was greater than 100 µM. The TGI [42] was 23.1 µM, the TGI [43] was greater than 100 µM and the TGI [44] was greater than 100 µM. For the same compound, the TGI [45] was greater than 100 µM, the TGI [47] was greater than 100 µM and the TGI [48] was greater than 100 µM. It also gave a TGI [50] greater than 100 µM, a TGI [51] greater than 100 µM and a TGI [52] greater than 100 µM. For the same compound, the TGI [53] was greater than 100 µM and the TGI [54] was 50.1 µM.

`O=C(c1ccncc1)C1C(=O)c2ccccc2C1C1(O)c2ccccc2CC1C(O)c1ccncc1` (stereo not drawn) showed a TGI [1] greater than 100 µM, a TGI [55] greater than 100 µM and a TGI [2] greater than 100 µM. The TGI [3] was greater than 100 µM, the TGI [4] was greater than 100 µM and the TGI [5] was greater than 100 µM. It also gave a TGI [7] greater than 100 µM, a TGI [9] greater than 100 µM and a TGI [56] greater than 100 µM. It also gave a TGI [10] greater than 100 µM, a TGI [11] greater than 100 µM and a TGI [13] greater than 100 µM. For the same compound, the TGI [14] was greater than 100 µM, the TGI [15] was greater than 100 µM and the TGI [16] was greater than 100 µM. The TGI [17] was greater than 100 µM, the TGI [18] was greater than 100 µM and the TGI [19] was greater than 100 µM. For the same compound, the TGI [20] was greater than 100 µM, the TGI [21] was greater than 100 µM and the TGI [22] was greater than 100 µM. For the same compound, the TGI [23] was greater than 100 µM, the TGI [57] was greater than 100 µM and the TGI [24] was 47.9 µM. The TGI [25] was 38.9 µM, the TGI [26] was 69.7 µM and the TGI [27] was greater than 100 µM. For the same compound, the TGI [28] was greater than 100 µM, the TGI [29] was greater than 100 µM and the TGI [30] was greater than 100 µM. The TGI [31] was greater than 100 µM, the TGI [33] was greater than 100 µM and the TGI [34] was greater than 100 µM. For the same compound, the TGI [35] was greater than 100 µM, the TGI [37] was 90.2 µM and the TGI [58] was greater than 100 µM. For the same compound, the TGI [38] was greater than 100 µM, the TGI [39] was greater than 100 µM and the TGI [59] was greater than 100 µM. The TGI [40] was 57.3 µM, the TGI [41] was greater than 100 µM and the TGI [42] was greater than 100 µM. The TGI [43] was greater than 100 µM, the TGI [44] was greater than 100 µM and the TGI [45] was greater than 100 µM. It also gave a TGI [46] greater than 100 µM, a TGI [47] greater than 100 µM and a TGI [48] greater than 100 µM. For the same compound, the TGI [49] was greater than 100 µM, the TGI [50] was greater than 100 µM and the TGI [51] was greater than 100 µM. For the same compound, the TGI [52] was greater than 100 µM, the TGI [53] was 48.7 µM and the TGI [54] was 29 µM.

`CN1CCN(c2cc3nsnc3c3nsnc23)CC1` showed a TGI [1] greater than 10 µM, a TGI [2] greater than 10 µM and a TGI [5] greater than 10 µM. For the same compound, the TGI [6] was greater than 10 µM, the TGI [7] was greater than 10 µM and the TGI [8] was greater than 10 µM. For the same compound, the TGI [9] was greater than 10 µM, the TGI [56] was greater than 10 µM and the TGI [11] was greater than 10 µM. It also gave a TGI [12] greater than 10 µM, a TGI [13] greater than 10 µM and a TGI [16] greater than 10 µM. It also gave a TGI [17] greater than 10 µM, a TGI [18] greater than 10 µM and a TGI [19] greater than 10 µM. It also gave a TGI [20] greater than 10 µM, a TGI [21] greater than 10 µM and a TGI [22] greater than 10 µM. It also gave a TGI [23] greater than 10 µM, a TGI [57] greater than 10 µM and a TGI [25] greater than 10 µM. For the same compound, the TGI [26] was greater than 10 µM, the TGI [28] was greater than 10 µM and the TGI [35] was greater than 10 µM. It also gave a TGI [36] greater than 10 µM, a TGI [37] greater than 10 µM and a TGI [58] greater than 10 µM. The TGI [38] was greater than 10 µM, the TGI [39] was greater than 10 µM and the TGI [41] was greater than 10 µM. For the same compound, the TGI [42] was greater than 10 µM, the TGI [43] was greater than 10 µM and the TGI [44] was greater than 10 µM. It also gave a TGI [46] greater than 10 µM, a TGI [47] greater than 10 µM and a TGI [48] greater than 10 µM. It also gave a TGI [49] greater than 10 µM, a TGI [50] greater than 10 µM and a TGI [52] greater than 10 µM. The TGI [53] was greater than 10 µM.
